# Assay results from PubChem BioAssay (NCI).
#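 48-hour exposure; five concentrations; linearly interpolated endpoints. The concentration for 50% growth inhibition is given as GI50. The concentration for full growth arrest is given as TGI.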
# How the values were obtained:
# Experiment in all cases: growth of human tumour cells (NCI), 48 h
# SK-MEL-5 melanoma = tested on: SK-MEL-5 melanoma
# UO-31 renal = tested on: UO-31 renal
# TK-10 renal = tested on: TK-10 renal
# T-47D breast = tested on: T-47D breast
# 786-0 renal = tested on: 786-0 renal
# NCI-H226 lung = tested on: NCI-H226 lung
# HS 578T breast = tested on: HS 578T breast
# SNB-75 CNS = tested on: SNB-75 CNS
# KM12 colon = tested on: KM12 colon
# U251 CNS = tested on: U251 CNS
# SF-295 CNS = tested on: SF-295 CNS
# MDA-MB-435 = tested on: MDA-MB-435
# UACC-257 melanoma = tested on: UACC-257 melanoma
# SW-620 colon = tested on: SW-620 colon
# SK-OV-3 ovarian = tested on: SK-OV-3 ovarian
# NCI-H460 lung = tested on: NCI-H460 lung
# RPMI-8226 leukemia = tested on: RPMI-8226 leukemia
# CAKI-1 renal = tested on: CAKI-1 renal
# MCF7 breast = tested on: MCF7 breast
# HCC-2998 colon = tested on: HCC-2998 colon
# IGROV1 ovarian = tested on: IGROV1 ovarian
# COLO 205 colon = tested on: COLO 205 colon
# OVCAR-3 ovarian = tested on: OVCAR-3 ovarian
# SN12C renal = tested on: SN12C renal
# NCI-H522 lung = tested on: NCI-H522 lung
# NCI/ADR-RES ovarian = tested on: NCI/ADR-RES ovarian
# SF-268 CNS = tested on: SF-268 CNS
# BT-549 breast = tested on: BT-549 breast
# PC-3 prostate = tested on: PC-3 prostate
# LOX IMVI melanoma = tested on: LOX IMVI melanoma
# UACC-62 melanoma = tested on: UACC-62 melanoma
# DU-145 prostate = tested on: DU-145 prostate
# HT29 colon = tested on: HT29 colon
# A549 NSCLC = tested on: A549 NSCLC
# MOLT-4 leukemia = tested on: MOLT-4 leukemia
# CCRF-CEM leukemia = tested on: CCRF-CEM leukemia
# OVCAR-5 ovarian = tested on: OVCAR-5 ovarian
# EKVX NSCLC = tested on: EKVX NSCLC
# OVCAR-8 ovarian = tested on: OVCAR-8 ovarian
# SF-539 CNS = tested on: SF-539 CNS
# MDA-MB-231 breast = tested on: MDA-MB-231 breast
# RXF 393 renal = tested on: RXF 393 renal
# K-562 leukemia = tested on: K-562 leukemia
# SK-MEL-2 melanoma = tested on: SK-MEL-2 melanoma
# MALME-3M melanoma = tested on: MALME-3M melanoma
# HCT-15 colon = tested on: HCT-15 colon
# HOP-92 NSCLC = tested on: HOP-92 NSCLC
# M14 melanoma = tested on: M14 melanoma
# A498 renal = tested on: A498 renal
# HL-60(TB) leukemia = tested on: HL-60(TB) leukemia
# SNB-19 CNS = tested on: SNB-19 CNS
# OVCAR-4 ovarian = tested on: OVCAR-4 ovarian
# HOP-62 NSCLC = tested on: HOP-62 NSCLC
# SR leukemia = tested on: SR leukemia
# NCI-H23 lung = tested on: NCI-H23 lung
# ACHN renal = tested on: ACHN renal
# SK-MEL-28 melanoma = tested on: SK-MEL-28 melanoma
# HCT-116 colon = tested on: HCT-116 colon
compound,measurement,setting,value
CN1CCN(Cc2ccc(NC(=O)c3cncc(C#Cc4cnc5ccc(O[C@H]6CCOC6)nn45)c3)cc2C(F)(F)F)CC1,GI50,SK-MEL-5 melanoma,716 nM
same,TGI,SK-MEL-5 melanoma,1400 nM
same,GI50,UO-31 renal,270 nM
same,TGI,UO-31 renal,853 nM
same,GI50,TK-10 renal,484 nM
same,TGI,TK-10 renal,1130 nM
same,GI50,T-47D breast,934 nM
same,TGI,T-47D breast,2210 nM
same,GI50,786-0 renal,187 nM
same,TGI,786-0 renal,397 nM
same,GI50,NCI-H226 lung,123 nM
same,TGI,NCI-H226 lung,1040 nM
same,GI50,HS 578T breast,555 nM
same,TGI,HS 578T breast,1590 nM
same,GI50,SNB-75 CNS,295 nM
same,TGI,SNB-75 CNS,795 nM
same,GI50,KM12 colon,5 nM
same,TGI,KM12 colon,725 nM
same,GI50,U251 CNS,575 nM
same,TGI,U251 CNS,1280 nM
same,GI50,SF-295 CNS,748 nM
same,TGI,SF-295 CNS,1510 nM
same,GI50,MDA-MB-435,159 nM
same,TGI,MDA-MB-435,705 nM
same,GI50,UACC-257 melanoma,653 nM
same,TGI,UACC-257 melanoma,1380 nM
same,GI50,SW-620 colon,177 nM
same,TGI,SW-620 colon,871 nM
same,GI50,SK-OV-3 ovarian,848 nM
same,TGI,SK-OV-3 ovarian,1760 nM
same,GI50,NCI-H460 lung,341 nM
same,TGI,NCI-H460 lung,962 nM
same,GI50,RPMI-8226 leukemia,815 nM
same,TGI,RPMI-8226 leukemia,2740 nM
same,GI50,CAKI-1 renal,226 nM
same,TGI,CAKI-1 renal,744 nM
same,GI50,MCF7 breast,149 nM
same,TGI,MCF7 breast,752 nM
same,GI50,HCC-2998 colon,341 nM
same,TGI,HCC-2998 colon,964 nM
same,GI50,IGROV1 ovarian,177 nM
same,TGI,IGROV1 ovarian,818 nM
same,GI50,COLO 205 colon,227 nM
same,TGI,COLO 205 colon,828 nM
same,GI50,OVCAR-3 ovarian,591 nM
same,TGI,OVCAR-3 ovarian,1290 nM
same,GI50,SN12C renal,307 nM
same,TGI,SN12C renal,1060 nM
same,GI50,NCI-H522 lung,562 nM
same,TGI,NCI-H522 lung,1320 nM
same,GI50,NCI/ADR-RES ovarian,1120 nM
same,TGI,NCI/ADR-RES ovarian,3100 nM
same,GI50,SF-268 CNS,593 nM
same,TGI,SF-268 CNS,1420 nM
same,GI50,BT-549 breast,375 nM
same,TGI,BT-549 breast,783 nM
same,GI50,PC-3 prostate,720 nM
same,TGI,PC-3 prostate,2280 nM
same,GI50,LOX IMVI melanoma,186 nM
same,TGI,LOX IMVI melanoma,743 nM
same,GI50,UACC-62 melanoma,488 nM
same,TGI,UACC-62 melanoma,1160 nM
same,GI50,DU-145 prostate,521 nM
same,TGI,DU-145 prostate,1180 nM
same,GI50,HT29 colon,194 nM
same,TGI,HT29 colon,826 nM
same,GI50,A549 NSCLC,475 nM
same,TGI,A549 NSCLC,1450 nM
same,GI50,MOLT-4 leukemia,289 nM
same,TGI,MOLT-4 leukemia,2720 nM
same,GI50,CCRF-CEM leukemia,305 nM
same,TGI,CCRF-CEM leukemia,4760 nM
same,GI50,OVCAR-5 ovarian,381 nM
same,TGI,OVCAR-5 ovarian,1210 nM
same,GI50,EKVX NSCLC,623 nM
same,TGI,EKVX NSCLC,1350 nM
same,GI50,OVCAR-8 ovarian,675 nM
same,TGI,OVCAR-8 ovarian,1540 nM
same,GI50,SF-539 CNS,171 nM
same,TGI,SF-539 CNS,771 nM
same,GI50,MDA-MB-231 breast,174 nM
same,TGI,MDA-MB-231 breast,850 nM
same,GI50,RXF 393 renal,681 nM
same,TGI,RXF 393 renal,1440 nM
same,GI50,K-562 leukemia,5 nM
same,TGI,K-562 leukemia,544 nM
same,GI50,SK-MEL-2 melanoma,431 nM
same,TGI,SK-MEL-2 melanoma,1120 nM
same,GI50,MALME-3M melanoma,97.6 nM
same,TGI,MALME-3M melanoma,438 nM
same,GI50,HCT-15 colon,385 nM
same,TGI,HCT-15 colon,1400 nM
same,GI50,HOP-92 NSCLC,55.1 nM
same,TGI,HOP-92 NSCLC,275 nM
same,GI50,M14 melanoma,97.5 nM
same,TGI,M14 melanoma,280 nM
same,GI50,A498 renal,871 nM
same,TGI,A498 renal,1590 nM
same,GI50,HL-60(TB) leukemia,194 nM
same,TGI,HL-60(TB) leukemia,692 nM
same,GI50,SNB-19 CNS,1210 nM
same,TGI,SNB-19 CNS,3240 nM
same,GI50,OVCAR-4 ovarian,490 nM
same,TGI,OVCAR-4 ovarian,1340 nM
same,GI50,HOP-62 NSCLC,505 nM
same,TGI,HOP-62 NSCLC,1280 nM
same,GI50,SR leukemia,284 nM
same,TGI,SR leukemia,1440 nM
same,GI50,NCI-H23 lung,245 nM
same,TGI,NCI-H23 lung,1000 nM
same,GI50,ACHN renal,396 nM
same,TGI,ACHN renal,1040 nM
same,GI50,SK-MEL-28 melanoma,410 nM
same,TGI,SK-MEL-28 melanoma,1110 nM
same,GI50,HCT-116 colon,45.6 nM
same,TGI,HCT-116 colon,212 nM
